Laboratory results taken from US7928103B2, “Compounds which modulate the CB2 receptor” (Boehringer Ingelheim International GmbH, priority 2006, dated 2011).

How the values were obtained:
[1] = biological target: T1, human CB2R (Homo sapiens, UniProt P34972); assay: Human CB2 receptor binding (3H-CP55940 competition, SPA); design: purchased Perkin Elmer Life and Analytical Sciences; host or cells: HEK293 EBNA cells, stably transfected; conditions: through the use of the above described assays (CB1/CB2 binding, CB2R and CB1R cAMP); assay not specified further
T1 sequence (P34972 whole entry): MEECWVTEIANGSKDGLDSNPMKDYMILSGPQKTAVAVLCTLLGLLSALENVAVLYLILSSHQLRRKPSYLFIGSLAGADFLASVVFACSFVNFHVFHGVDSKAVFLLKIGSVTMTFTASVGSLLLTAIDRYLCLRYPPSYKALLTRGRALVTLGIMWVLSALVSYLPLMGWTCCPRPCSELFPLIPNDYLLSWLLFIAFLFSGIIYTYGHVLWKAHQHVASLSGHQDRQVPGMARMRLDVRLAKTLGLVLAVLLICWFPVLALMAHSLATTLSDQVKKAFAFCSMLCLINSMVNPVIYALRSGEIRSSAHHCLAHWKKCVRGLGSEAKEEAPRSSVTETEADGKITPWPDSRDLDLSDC
Description: A. Human CB1 and CB2 Receptor Binding:
CB2 membranes were purchased and made from HEK293 EBNA cells stably transfected with human CB2 receptor cDNA (Perkin Elmer Life and Analytical Sciences). CB1 membranes were isolated from HEK cells stably co-transfected with human CB1 receptor and Gα16 cDNA's. The membrane preparation was bound to scintillation beads (Ysi-Poly-L-lysine SPA beads, GE Healthcare) for 4 hours at room temperature in assay buffer containing 50 mM Tris, pH 7.5, 2.5 mM EDTA, 5 mM MgCl2, 0.8% fatty acid free Bovine Serum Albumin. Unbound membrane was removed by washing in assay buffer. Membrane-bead mixture was added to 96-well assay plates in the amounts of 15 ug membrane per well (CB2) or 2.5 ug per well (CB1) and 1 mg SPA bead per well. Compounds were added to the membrane-bead mixture in dose-response concentrations ranging from 1×10^−5 M to 1×10^−10 M with 0.25% DMSO, final. The competition reaction was initiated with the addition of ^3H-CP55940 (Perkin Elmer Life and Analytical Sciences) at a final concentration of 1.5 nM (CB2) or 2.5 nM (CB1). The reaction was incubated at room temperature for 18 hours and read on TopCount NXT plate reader. Total and non-specific binding was determined in the absence and presence of 1.25 uM Win 55212 (Sigma). IC50 values for each compound were calculated as the concentration of compound that inhibits the specific binding of the radioactively labeled ligand to the receptor by 50% using the XLFit 4.1 four parameter logistic model. IC50 values were converted to inhibition constant (Ki) values using Cheng-Prusoff equation.

[2] = biological target: T1, human CB2R; assay: CB2R mediated modulation of cAMP synthesis; type: cell-based; design: host or cells: CHO cells; conditions: agonists decrease forskolin induced production of cAMP; CHO cells expressing human CB2R
Description: B. CB2R Mediated Modulation of cAMP Synthesis:
Compounds of the invention were evaluated for their CB2 agonist or inverse agonistic activity in accordance with the following experimental method.
CHO cells expressing human CB2R (Euroscreen) were plated at a density of 5000 cells per well in 384 well plates and incubated overnight at 37° C. After removing the media, the cells were treated with test compounds diluted in stimulation buffer containing 1 mM IBMX, 0.25% BSA and 10 uM Forskolin. The assay was incubated for 30 minutes at 37° C. Cells were lysed and the cAMP concentration was measured using DiscoverX-XS cAMP kit, following the manufacturer's protocol. In this setting, agonists will decrease forskolin induced production of cAMP while inverse agonists will further increase forskolin induced production of cAMP. EC50 of agonists were calculated as follows. The maximal amount of cAMP produced by forskolin compared to the level of cAMP inhibited by 1 uM CP55940 is defined as 100%. The EC50 value of each test compound was determined as the concentration at which 50% of the forskolin-stimulated cAMP synthesis was inhibited. Data was analyzed using a four-parameter logistic model. (Model 205 of XLfit 4.0).

Row | SMILES | found to exhibit activity [1] | found to exhibit agonistic activity [2]
1 | Clc1cccc(Nc2ccc(CN3CCO[C@@H](c4ccccc4)C3)cn2)c1 [Example 26, (3-Chloro-phenyl)-[5-((S)-2-phenyl-morpholin-4-ylmethyl)-pyridin-2-yl]-amine] | exhibit activity | exhibit agonistic activity
2 | Clc1ccc(Nc2ccc(CN3CCO[C@@H](c4ccccc4)C3)cn2)cc1Cl [Example 27, (3,4-Dichloro-phenyl)-[5-((S)-2-phenyl-morpholin-4-ylmethyl)-pyridin-2-yl]-amine] | exhibit activity | exhibit agonistic activity
3 | Cc1cccc(Nc2ccc(CN3CCO[C@@H](c4ccccc4)C3)cn2)c1 [Example 28, [5-((S)-2-Phenyl-morpholin-4-ylmethyl)-pyridin-2-yl]-m-tolyl-amine] | exhibit activity | exhibit agonistic activity
4 | Fc1ccc(Nc2ccc(CN3CCO[C@@H](c4ccccc4)C3)cn2)cc1 [Example 29, (4-Fluoro-phenyl)-[5-((S)-2-phenyl-morpholin-4-ylmethyl)-pyridin-2-yl]-amine] | exhibit activity | exhibit agonistic activity
5 | Clc1ccc(Nc2ccc(CN3CCO[C@@H](c4ccccc4)C3)cn2)cc1 [Example 30, (4-Chloro-phenyl)-[5-((S)-2-phenyl-morpholin-4-ylmethyl)-pyridin-2-yl]-amine] | exhibit activity | exhibit agonistic activity
6 | Cc1ccc(Nc2ccc(CN3CCO[C@@H](c4ccccc4)C3)cn2)cc1 [Example 31, [5-((S)-2-Phenyl-morpholin-4-ylmethyl)-pyridin-2-yl]-p-tolyl-amine] | exhibit activity | exhibit agonistic activity
7 | FC(F)(F)Oc1ccccc1Nc1ccc(CN2CCO[C@@H](c3ccccc3)C2)cn1 [Example 32, [5-((S)-2-Phenyl-morpholin-4-ylmethyl)-pyridin-2-yl]-(2-trifluoromethoxy-phenyl)-amine] | exhibit activity | exhibit agonistic activity
8 | c1ccc([C@H]2CN(Cc3ccc(Nc4cc5ccccc5cn4)nc3)CCO2)cc1 [Example 33, Isoquinolin-3-yl-[5-((S)-2-phenyl-morpholin-4-ylmethyl)-pyridin-2-yl]-amine] | exhibit activity | exhibit agonistic activity
9 | c1ccc(Oc2ccc(CN3CCO[C@@H](c4ccccc4)C3)cc2)cc1 [Example 34, (S)-4-(4-Phenoxy-benzyl)-2-phenyl-morpholine] | exhibit activity | exhibit agonistic activity
